US8673914B2, “Use of phosphodiesterase inhibitors for treating multidrug resistance” (St. John's University, priority 2011, dated 2014)
Marks after values point to notes of the source that are not given here.

Legend:
HEK/MRP7 cells [1] = test: [^3H]-paclitaxel accumulation (Example 4); format: cell-based
Protocol: (§1) The effect of PDE5 inhibitors on the intracellular accumulation of paclitaxel in HEK293-pcDNA3.1 and HEK/MRP7 cells was measured using [^3H]-paclitaxel. […] For efflux studies, the cells were treated the same as in the drug accumulation study, and then washed three times with ice-cold PBS, and suspended in fresh medium with or without PDE5 inhibitors. Aliquots were evenly collected at various time points (0, 30, 60, and 120 min). Samples from both accumulation and efflux experiments were washed with ice-cold PBS three times and placed in scintillation fluid, and the radioactivity was measured in a Packard TRI-CARB® 1900CA liquid scintillation analyzer from Packard Instrument Company, Inc. (Downers Grove, Ill.).

KB-C2 (ABCB1) = test: MTT cytotoxicity/reversal assay (Example 1); format: cell-based, human
Protocol: (§2) The KB-C2 and KB-3-1 were kindly provided by Dr. Akiyama (Kagoshima University, Japan). HEK293-pcDNA3.1 and wild-type HEK/ABCG2 transfected cells were established by selection with G418 after transfecting HEK293 with either (1) empty pcDNA3.1 vector or (2) pcDNA3.1 vector containing full length of ABCG2 coding arginine (R) at amino acid position 482, and were then cultured in a medium with 2 mg/ml of G418 (ABCG2-482-R2 cells). Similarly, the HEK/MRP1 (ABCC1) and HEK/ABCB1 cells were generated by transfecting the HEK293 cells with either the MRP1 expression vector or the ABCB1 expression vector. All of the cell lines were grown in Dulbecco's modified Eagle's medium (DMEM) supplemented with 10% bovine serum, 100 units/ml penicillin, and […] streptomycin in a humidified incubator containing 5% CO2 at 37° C.
(§3) The MTT assay was used to assess cytotoxicity. The cultured cells were harvested with trypsin and resuspended in a final concentration of 4×10^3 cells/well for KB-3-1; 7.5×10^3 cells/well for KB-C2; and 8×10^3 for all of the other cell lines used in this study. Cells were seeded evenly in 96-well multiplates. […] After 68 h of incubation, 20 μl of the MTT solution (4 mg/ml) was added to each well, and the plate was further incubated for 4 h at 37° C., allowing viable cells to convert the yellow-colored MTT into dark-blue formazan crystals. Subsequently, the medium was discarded, and 100 μl of DMSO was added into each well to dissolve the formazan crystals, generating purple color. The absorbance was determined at 570 nm by an OPSYS Microplate Reader from DYNEX Technologies, Inc. (Chantilly, Va.). […] The degree of the reversal of multidrug resistance (MDR) was calculated by dividing the IC50 of an anticancer drug, e.g., an antineoplastic or chemotherapeutic drug (agent, compound), in a cell type in the absence of a reversal agent by the IC50 of the anticancer drug in the same cell type in the presence of the reversal agent. The IC50 values were calculated from survival curves using the Bliss method.

KB-3-1 = test: MTT cytotoxicity/reversal assay (Example 1); format: cell-based, human
Protocol: as §2, §3

KB-C2 cells (ABCB1) = test: [^3H]-paclitaxel accumulation (Example 1); format: cell-based, human
Protocol: The intracellular accumulation of [^3H]-paclitaxel was measured as follows. […] Intracellular paclitaxel accumulation was measured by incubating cells with 0.1 μM [^3H]-paclitaxel for 2 h in the presence or absence of the reversal agents at 37° C. The cells were washed three times with ice-cold PBS, then suspended in fresh medium with or without reversal agents at 37° C. Aliquots of the extracellular medium (40 μl) were collected at various time points (0, 60, 120 min), and finally the cells were collected and lysed in 10 mM lysis buffer (pH 7.4, containing 1% Triton X-100 and 0.2% SDS). Each sample was placed in scintillation fluid and the radioactivity was measured in a Packard TRI-CARB1 1900CA liquid scintillation analyzer from Packard Instrument Company, Inc. (Downers Grove, Ill.).

HEK/MRP7 cells [2] = test: [^3H]-paclitaxel efflux (Example 4); format: cell-based; conditions: for percentage of intracellular [^3H]-paclitaxel: 5 μM PDE5 inhibitor; for accumulated [^3H]-paclitaxel remaining in cells: absence of PDE5 inhibitors
Protocol: as §1

HEK293/pcDNA3.1 = test: MTT cytotoxicity/reversal assay (Example 1); format: cell-based
Protocol: as §2, §3

HEK/MRP7 = test: MTT cytotoxicity assay (Example 4); format: cell-based
Protocol: (§4) The MRP7 cDNA was generously provided by Dr. Gary Kruh (University of Illinois, Chicago, Ill.) and inserted into the pcDNA3.1 expression vector. […] Individual colonies were selected in medium containing G418 (1 mg/ml) and cultured for further analysis.
(§5) MTT colorimetric assay was performed to analyze the drug sensitivity as previously described (Shi et al. (2007) Cancer Res. 67:11012-20). HEK293-pcDNA3.1 and HEK/MRP7 cells were seeded into 96-well plates in triplicate at 6000 cells/well.
(§6) After drug incubation of 68 h, 20 μl MTT solution (4 mg/ml) was added into each well. […] The Bliss method was used to calculate the IC50 values according to survival curves.

HEK 293-pcDNA-3.1 = test: MTT cytotoxicity assay (Example 4); format: cell-based
Protocol: as §4, §5, §6

HEK/ABCB1 (ABCB1) = test: MTT cytotoxicity/reversal assay (Example 1); conditions: HEK/ABCB1
Protocol: The KB-C2 and KB-3-1 were kindly provided by Dr. Akiyama (Kagoshima University, Japan). […] Similarly, the HEK/MRP1 (ABCC1) and HEK/ABCB1 cells were generated by transfecting the HEK293 cells with either the MRP1 expression vector or the ABCB1 expression vector. All of the cell lines were grown in Dulbecco's modified Eagle's medium (DMEM) supplemented with 10% bovine serum, 100 units/ml penicillin, and […] streptomycin in a humidified incubator containing 5% CO2 at 37° C.
as §3

[3] = HEK293/pcDNA3.1, +5 μM reversal agent
[4] = HEK293/pcDNA3.1, +10 μM reversal agent
[5] = HEK 293-pcDNA-3.1, +1.25 μM reversal agent
[6] = HEK 293-pcDNA-3.1, +5 μM reversal agent

CCCc1nc(C)c2c(=O)[nH]c(-c3cc(S(=O)(=O)N4CCN(CC)CC4)ccc3OCC)nn12 [Vardenafil, vardenafil]
increase of intracellular accumulation of [^3H]-paclitaxel (HEK/MRP7 cells [1]; 5 μM, 2 h): 3.7 fold | fold reversal, cisplatin (KB-C2 (ABCB1); +5 μM reversal agent): (0.87) | fold reversal, colchicine (KB-C2 (ABCB1); +5 μM reversal agent): (27.6) | fold reversal, paclitaxel (KB-C2 (ABCB1); +5 μM reversal agent): (26.2) | fold reversal, cisplatin (KB-C2 (ABCB1); +10 μM reversal agent): (0.96) | fold reversal, colchicine (KB-C2 (ABCB1); +10 μM reversal agent): (184.8) | fold reversal, paclitaxel (KB-C2 (ABCB1); +10 μM reversal agent): (54.1) | fold reversal, cisplatin (KB-3-1; +5 μM reversal agent): (0.89) | fold reversal, colchicine (KB-3-1; +5 μM reversal agent): (0.90) | fold reversal, paclitaxel (KB-3-1; +5 μM reversal agent): (0.89) | fold reversal, cisplatin (KB-3-1; +10 μM reversal agent): (0.93) | fold reversal, colchicine (KB-3-1; +10 μM reversal agent): (0.93) | fold reversal, paclitaxel (KB-3-1; +10 μM reversal agent): (0.92) | increase of intracellular accumulation of paclitaxel (KB-C2 cells (ABCB1); 10 μM): 1.6 fold | percentage of intracellular [^3H]-paclitaxel (HEK/MRP7 cells [2]; 30 min): 95.34% | percentage of intracellular [^3H]-paclitaxel (HEK/MRP7 cells [2]; 60 min): 93.58% | percentage of intracellular [^3H]-paclitaxel (HEK/MRP7 cells [2]; 120 min): 63.92% | fold reversal, vincristine (HEK293/pcDNA3.1; HEK293/pcDNA3.1 (Table 6), +10 μM reversal agent): (0.92) | fold reversal, cisplatin (HEK293/pcDNA3.1; [3]): (1.06) | fold reversal, paclitaxel (HEK293/pcDNA3.1; [3]): (1.09) | fold reversal, vincristine (HEK293/pcDNA3.1; [3]): (0.88) | fold reversal, SN-38 (HEK293/pcDNA3.1; [4]): (1.10) | fold reversal, cisplatin (HEK293/pcDNA3.1; [4]): (1.00) | fold reversal, paclitaxel (HEK293/pcDNA3.1; [4]): (1.18) | fold reversal, vincristine (HEK293/pcDNA3.1; [4]): (1.19) | fold-resistance, docetaxel (HEK/MRP7; +1.25 μM reversal agent): (5.56) | fold-resistance, paclitaxel (HEK/MRP7; +1.25 μM reversal agent): (2.99) | fold-resistance, vinblastine (HEK/MRP7; +1.25 μM reversal agent): (3.01) | fold-resistance, cisplatin (HEK/MRP7; +5 μM reversal agent): (1.09) | fold-resistance, docetaxel (HEK/MRP7; +5 μM reversal agent): (1.19) | fold-resistance, paclitaxel (HEK/MRP7; +5 μM reversal agent): (1.06) | fold-resistance, vinblastine (HEK/MRP7; +5 μM reversal agent): (1.11) | fold-resistance, docetaxel (HEK 293-pcDNA-3.1; [5]): (1.0) | fold-resistance, paclitaxel (HEK 293-pcDNA-3.1; [5]): (0.93) | fold-resistance, vinblastine (HEK 293-pcDNA-3.1; [5]): (0.96) | fold-resistance, cisplatin (HEK 293-pcDNA-3.1; [6]): (1.07) | fold-resistance, docetaxel (HEK 293-pcDNA-3.1; [6]): (0.80) | fold-resistance, paclitaxel (HEK 293-pcDNA-3.1; [6]): (0.79) | fold-resistance, vinblastine (HEK 293-pcDNA-3.1; [6]): (0.85) | fold reversal, cisplatin (HEK/ABCB1 (ABCB1); +5 μM reversal agent): (0.95) | fold reversal, paclitaxel (HEK/ABCB1 (ABCB1); +5 μM reversal agent): (3.86) | fold reversal, vincristine (HEK/ABCB1 (ABCB1); +5 μM reversal agent): (4.10) | fold reversal, cisplatin (HEK/ABCB1 (ABCB1); +10 μM reversal agent): (1.09) | fold reversal, paclitaxel (HEK/ABCB1 (ABCB1); +10 μM reversal agent): (8.69) | fold reversal, vincristine (HEK/ABCB1 (ABCB1); +10 μM reversal agent): (11.60)

CC(=O)O[C@H]1C(=O)[C@@]2(C)[C@H]([C@H](OC(=O)c3ccccc3)[C@]3(O)C[C@H](OC(=O)[C@H](O)[C@@H](NC(=O)c4ccccc4)c4ccccc4)C(C)=C1C3(C)C)[C@]1(OC(C)=O)CO[C@@H]1C[C@@H]2O [Paclitaxel, paclitaxel]
intracellular concentration of [^3H]-paclitaxel relative to parental HEK293-pcDNA3.1 (HEK/MRP7 cells [1]; no inhibitor): 28.5% | fold reversal, paclitaxel (KB-C2 (ABCB1); alone): (1.00) | fold reversal, paclitaxel (KB-3-1; alone): (1.00) | intracellular concentration of paclitaxel relative to parental KB-3-1 cells (KB-C2 cells (ABCB1); no reversal agent): approximately 55% | accumulated [^3H]-paclitaxel remaining in cells (HEK/MRP7 cells [2]; 30 min): 62.43% | accumulated [^3H]-paclitaxel remaining in cells (HEK/MRP7 cells [2]; 60 min): 39.47% | accumulated [^3H]-paclitaxel remaining in cells (HEK/MRP7 cells [2]; 120 min): 23.44% | fold reversal, paclitaxel (HEK293/pcDNA3.1; HEK293/pcDNA3.1, alone): (1.00) | fold-resistance, paclitaxel (HEK/MRP7; alone): (9.21) | fold-resistance, paclitaxel (HEK 293-pcDNA-3.1; HEK 293-pcDNA-3.1, alone): (1.0)^b | IC50 (HEK 293-pcDNA-3.1; read-out: IC50 of paclitaxel): 11.6 ± 1.33 nM | fold reversal, paclitaxel (HEK/ABCB1 (ABCB1); alone): (1.00)
